Reference: publication PMC8389922, “First-in-Class Cyclic Temporin L Analogue: Design, Synthesis, and Antimicrobial Assessment” (Journal of Medicinal Chemistry, 2021)
Bridge positions count the residues as written; N and C are the ends. Square brackets hold non-standard residues; d marks the D form. Peptide text beside a SMILES is read from it.

Tests used:
[1] = 90% fresh human serum (male AB plasma), 37 ± 1 °C, peptide 0.2 mM, MeCN precipitation, RP-UHPLC peak area at 220 nm, triplicate
Method: Peptides were incubated with 90% fresh human serum at 37 ± 1 °C within 12 h.[69] The percentage of intact peptide was monitored by calculating the peak area of the chromatogram from RP-HPLC analysis.
The peptide was incubated in a 1.5 mL eppendorf tube with human serum at a final concentration of 0.2 mM, and the mixture was incubated at 37 ± 1 °C for different periods (0.25, 0.75, 1.5, 2, 3, 4, 6, 7, 8, and 12 h). After the incubation period, an aliquot of reaction solution was taken and added MeCN (double volume respect to the aliquot) for the precipitation of serum proteins present in human serum. The produced cloudy solution was cooled (4 °C) for 15 min and then centrifuged at 13 000 rpm for 10 min to remove the serum protein as pellet. Then, the supernatant was analyzed by RP-UHPLC using a linear elution gradient from 10 to 90% MeCN (0.1% TFA) in water (0.1% TFA) over 20 min. A flow rate of 1 mL/min was employed, and the absorbance of the eluting peaks was detected at 220 nm. The proteolytic stability assay was repeated in triplicate.

ANTS/DPX leakage assay = conditions: peptide 5–50 μM, 10 min
Method: The destabilization of membrane vesicles by 12 was explored measuring its effect on the release of encapsulated fluorophores in both LUVs mimicking Gram-positive and Gram-negative membranes. ANTS and DPX fluorophores were encapsulated in LUVs, and ANTS release was measured to evaluate the transient pore formation.
The dry lipid films (Cf = 100 μM) were dissolved with a solution of ANTs (12.5 mM) and DPX (45 mM) in water (2 mL) and then lyophilized overnight. The lipid films with encapsulated ANTS and DPX were hydrated with PBS 1× buffer and treated to obtain LUVs using the extrusion method.[81] Then, nonencapsulated ANTs and DPX were separated from liposomes by gel filtration using a Sephadex G-50 column (1.5 cm × 10 cm) at room temperature. Initially, liposomes contain both ANTs and DPX, and DPX efficiently quenches ANT fluorescence by collisional transfer.[82] When LUVs were treated with peptide concentrations of 5, 10, 15, 20, 30, and 50 μM, we measured the leakage of vesicles by measuring the dequenching of ANTS released into the medium. Changes in the fluorescence of 2 mL of ANTS/DPX LUV samples were monitored setting an excitation fluorescence at 385 nm (slit width, 5 nm) and a fluorescence emission at 512 nm (slit width, 5 nm) for 10 min after the addition of the peptide. […]

[2] = test system: S. aureus MRSA ATCC 43300; assay: In vitro time kill assay; type: cell-based, Staphylococcus aureus; conditions: 10^6 CFU/mL, peptide at the MIC (12.5 μM peptide 12; 25 μM peptide 9), 37 °C, CFU counts
Method: Thus, 12 was further tested against S. aureus ATCC 43300, a methicillin-resistant strain (MRSA), and compared with the linear precursor 9. […] No growth was observed after 24 h. Peptide 9 was bactericidal as well, by killing MRSA within 10 min, but at a higher concentration (25 μM).
Figure 7 In vitro time kill assay. […] The inhibitory effect on bacterial growth was assessed by measuring the number of CFU obtained after the treatment.
The plates were incubated at 37 °C on an orbital shaker at 120 rpm. Viability assessments were performed at 10 min, 30 min, 1 h, 2 h, and 24 h by plating 0.01 mL of undiluted and 10-fold serially diluted samples onto Mueller–Hinton plates in triplicate. After overnight incubation at 37 °C, bacterial colonies were counted and compared with counts from control cultures.

[3] = test system: preformed biofilm of S. aureus ATCC 25923
Method: (§1) Biofilm viability was determined as indicated in the Materials and General Procedures section and expressed as a percentage compared to that of untreated samples (100%). Values are the mean of at least three replicates ± SEM. Data are considered to be statistically significant as follows: *p < 0.05; ***p < 0.001; ****p < 0.0001. Biofilm eradication concentration 90, BEC90, was defined as the concentration able to reduce at least 90% of biofilm cells. TEXT PRINTED IN THE PICTURE: 9: S. aureus ATCC 25923: BEC90 = 25 μM; A. baumannii ATCC 19606: BEC90 > 100 μM | 12: S. aureus ATCC 25923: BEC90 = 12.5 μM; A. baumannii ATCC 19606: BEC90 = 25 μM
(§2) Preformed biofilms of S. aureus ATCC 25923 and A. baumannii ATCC 19606 were obtained as previously reported.[77] Microbial cultures were grown in Luria-Bertani broth (LB) at 37 °C to an optical density (OD) of 0.8 (λ = 590 nm) and then diluted in LB to a cell density of 1 × 10^6 colony-forming units (CFUs)/mL. Aliquots of 100 μL were dispensed into the wells of a 96-well plate, which was incubated for 20 h at 37 °C to allow biofilm formation. The medium containing planktonic cells was then aspirated from the wells and washed twice with 150 μL of phosphate-buffered saline (PBS) to remove any nonadherent cells. […] After treatment, each well was rinsed twice with PBS, as previously described. Then, 150 μL of MTT solution (0.5 mg/mL) were added to each well to evaluate biofilm cell viability. The plates were incubated at 37 °C for 4 h in the dark, and the reaction was stopped by adding sodium dodecyl sulfate (SDS) (at a final concentration of 5% v/v). The absorbance of each well was recorded at 570 nm using a microplate reader (Infinite M200; Tecan, Salzburg, Austria), and the percentage of biofilm cells viability was calculated with respect to the untreated samples (100%).

[4] = test system: preformed biofilm of A. baumannii ATCC 19606; conditions: ATCC 19606, 20 h
Method: as §1, §2

Question: Which results are given for `CC[C@H](C)[C@H](NC(=O)[C@H](CCCNC(=N)N)NC(=O)[C@@H]1CCC(=O)NCCCC[C@H](NC(=O)[C@H](Cc2ccccc2)NC(=O)[C@H](Cc2c[nH]c3ccccc23)NC(=O)[C@@H]2CCCN2C(=O)[C@@H](NC(=O)[C@@H](N)Cc2ccccc2)C(C)C)C(=O)N[C@@H](CCCCN)C(=O)N[C@@H](Cc2ccccc2)C(=O)N[C@H](CC(C)C)C(=O)N1)C(=O)N[C@@H](CC(C)C)C(N)=O` [compound 12] (H-FVPWFKKF[dL]ERIL-NH2; lactam 6-10)?
Answer: time to complete degradation in human serum [1]: 12 h; leakage of LUVs (ANTS release) (ANTS/DPX leakage assay; LUVs mimicking Gram-negative membranes): significant leakage ability; leakage of LUVs (ANTS release) (ANTS/DPX leakage assay; LUVs mimicking Gram-positive membranes): low leakage effect; time within which the MRSA strain was killed [2]: ≤ 30 min; reduction of viable S. aureus biofilm cells ([3]; 2 h treatment, from 100 to 12.5 μM, with respect to untreated samples): more than 90%; Biofilm Eradication Concentration 90 (BEC90) S. aureus ATCC 25923 ([3]; preformed 20 h biofilm, 2 h treatment in PBS at 37 °C, MTT, concentration reducing at least 90% of biofilm cells): 12.5 µM; Biofilm Eradication Concentration 90 (BEC90) A. baumannii ATCC 19606 [4]: 25 µM
